According to the NIST ThermoML archive (doi:10.1007/s10765-005-5570-x):

Experiment: xn = mol fraction of the nth substance listed
Conditions: Liquid

ClCCBr [1-bromo-2-chloroethane] + CCOC(C)=O
Conditions	mass density [kg/m3]
288.15 K, 101.33 kPa, x1 = 0.108	984.97
288.15 K, 101.33 kPa, x1 = 0.1985	1051.71
288.15 K, 101.33 kPa, x1 = 0.2997	1128.56
288.15 K, 101.33 kPa, x1 = 0.3988	1205.99
288.15 K, 101.33 kPa, x1 = 0.5008	1288.67
288.15 K, 101.33 kPa, x1 = 0.5477	1327.76
288.15 K, 101.33 kPa, x1 = 0.6462	1412.26
288.15 K, 101.33 kPa, x1 = 0.7653	1518.63
288.15 K, 101.33 kPa, x1 = 0.803	1553.45
288.15 K, 101.33 kPa, x1 = 0.905	1650.02
288.15 K, 101.33 kPa, x1 = 1	1744.36
298.15 K, 101.33 kPa, x1 = 0.108	972.55
298.15 K, 101.33 kPa, x1 = 0.1985	1039.06
298.15 K, 101.33 kPa, x1 = 0.2997	1115.49
298.15 K, 101.33 kPa, x1 = 0.3988	1192.41
298.15 K, 101.33 kPa, x1 = 0.5008	1274.57
298.15 K, 101.33 kPa, x1 = 0.5477	1313.32
298.15 K, 101.33 kPa, x1 = 0.6462	1397.28
298.15 K, 101.33 kPa, x1 = 0.7653	1503.13
298.15 K, 101.33 kPa, x1 = 0.803	1537.71
298.15 K, 101.33 kPa, x1 = 0.905	1634.03
298.15 K, 101.33 kPa, x1 = 1	1727.88
298.15 K, 200 kPa, x1 = 0.2995	1115.91
298.15 K, 200 kPa, x1 = 0.5013	1278.27
298.15 K, 200 kPa, x1 = 0.6994	1442.43
298.15 K, 500 kPa, x1 = 0.2995	1116.35
298.15 K, 600 kPa, x1 = 0.6994	1443.12
298.15 K, 700 kPa, x1 = 0.5013	1278.85
298.15 K, 1100 kPa, x1 = 0.6994	1443.6
298.15 K, 1200 kPa, x1 = 0.2995	1117.05
298.15 K, 1200 kPa, x1 = 0.5013	1279.48
298.15 K, 2100 kPa, x1 = 0.2995	1118.11
298.15 K, 2100 kPa, x1 = 0.5013	1280.34
298.15 K, 2100 kPa, x1 = 0.6994	1444.65
298.15 K, 2900 kPa, x1 = 0.6994	1445.74
298.15 K, 3000 kPa, x1 = 0.2995	1119.13
298.15 K, 3000 kPa, x1 = 0.5013	1281.5
298.15 K, 4000 kPa, x1 = 0.2995	1120.19
298.15 K, 4000 kPa, x1 = 0.5013	1282.56
298.15 K, 4100 kPa, x1 = 0.6994	1447.07
298.15 K, 5000 kPa, x1 = 0.2995	1121.32
298.15 K, 5000 kPa, x1 = 0.5013	1283.71
298.15 K, 5100 kPa, x1 = 0.6994	1448.15
298.15 K, 5800 kPa, x1 = 0.2995	1122.17
298.15 K, 5800 kPa, x1 = 0.6994	1448.98
298.15 K, 5900 kPa, x1 = 0.5013	1284.8
298.15 K, 7000 kPa, x1 = 0.5013	1285.84
298.15 K, 7000 kPa, x1 = 0.6994	1450.32
298.15 K, 7100 kPa, x1 = 0.2995	1123.21
298.15 K, 7700 kPa, x1 = 0.6994	1451.09
298.15 K, 7900 kPa, x1 = 0.2995	1124.37
298.15 K, 8000 kPa, x1 = 0.5013	1286.92
298.15 K, 8600 kPa, x1 = 0.2995	1125.17
298.15 K, 8700 kPa, x1 = 0.5013	1287.86
298.15 K, 8800 kPa, x1 = 0.6994	1452.5
298.15 K, 10100 kPa, x1 = 0.2995	1126.71
298.15 K, 10100 kPa, x1 = 0.5013	1289.28
298.15 K, 10300 kPa, x1 = 0.6994	1454.22
298.15 K, 11700 kPa, x1 = 0.2995	1128.38
298.15 K, 12000 kPa, x1 = 0.5013	1291.48
298.15 K, 12000 kPa, x1 = 0.6994	1456.29
298.15 K, 13700 kPa, x1 = 0.5013	1293.44
298.15 K, 13800 kPa, x1 = 0.2995	1130.67
298.15 K, 14000 kPa, x1 = 0.6994	1458.57
298.15 K, 15500 kPa, x1 = 0.5013	1295.42
298.15 K, 15900 kPa, x1 = 0.2995	1132.71
298.15 K, 15900 kPa, x1 = 0.6994	1460.86
298.15 K, 17400 kPa, x1 = 0.6994	1462.58
298.15 K, 17700 kPa, x1 = 0.2995	1134.48
298.15 K, 17900 kPa, x1 = 0.5013	1298.2
298.15 K, 19200 kPa, x1 = 0.6994	1464.86
298.15 K, 19700 kPa, x1 = 0.2995	1136.76
298.15 K, 19800 kPa, x1 = 0.5013	1300.25
308.15 K, 101.33 kPa, x1 = 0.108	959.03
308.15 K, 101.33 kPa, x1 = 0.1985	1024.94
308.15 K, 101.33 kPa, x1 = 0.2997	1100.59
308.15 K, 101.33 kPa, x1 = 0.3988	1177.02
308.15 K, 101.33 kPa, x1 = 0.5008	1258.55
308.15 K, 101.33 kPa, x1 = 0.5477	1296.96
308.15 K, 101.33 kPa, x1 = 0.6462	1380.36
308.15 K, 101.33 kPa, x1 = 0.7653	1485.56
308.15 K, 101.33 kPa, x1 = 0.803	1519.81
308.15 K, 101.33 kPa, x1 = 0.905	1615.55
308.15 K, 101.33 kPa, x1 = 1	1708.86

ClCCCl [1,2-dichloroethane] + CCOC(C)=O
Conditions	mass density [kg/m3]
288.15 K, 101.33 kPa, x1 = 0.1036	936.39
288.15 K, 101.33 kPa, x1 = 0.2054	966.98
288.15 K, 101.33 kPa, x1 = 0.3019	996.99
288.15 K, 101.33 kPa, x1 = 0.4003	1028.99
288.15 K, 101.33 kPa, x1 = 0.4963	1061.48
288.15 K, 101.33 kPa, x1 = 0.602	1098.83
288.15 K, 101.33 kPa, x1 = 0.682	1128.5
288.15 K, 101.33 kPa, x1 = 0.8002	1174.96
288.15 K, 101.33 kPa, x1 = 0.9001	1216.19
288.15 K, 101.33 kPa, x1 = 1	1260.13
298.15 K, 101.33 kPa, x1 = 0.1036	924.54
298.15 K, 101.33 kPa, x1 = 0.2054	954.82
298.15 K, 101.33 kPa, x1 = 0.3019	984.84
298.15 K, 101.33 kPa, x1 = 0.4003	1016.64
298.15 K, 101.33 kPa, x1 = 0.4963	1048.95
298.15 K, 101.33 kPa, x1 = 0.602	1086.09
298.15 K, 101.33 kPa, x1 = 0.682	1115.64
298.15 K, 101.33 kPa, x1 = 0.8002	1161.78
298.15 K, 101.33 kPa, x1 = 0.9001	1202.79
298.15 K, 101.33 kPa, x1 = 1	1246.59
298.15 K, 200 kPa, x1 = 0.2995	983.88
298.15 K, 200 kPa, x1 = 0.5013	1046.97
298.15 K, 200 kPa, x1 = 0.6994	1120.18
298.15 K, 500 kPa, x1 = 0.2995	984.27
298.15 K, 600 kPa, x1 = 0.5013	1047.36
298.15 K, 600 kPa, x1 = 0.6994	1120.72
298.15 K, 1100 kPa, x1 = 0.5013	1047.97
298.15 K, 1200 kPa, x1 = 0.2995	985.01
298.15 K, 1200 kPa, x1 = 0.6994	1121.21
298.15 K, 2100 kPa, x1 = 0.5013	1049.05
298.15 K, 2100 kPa, x1 = 0.6994	1122.19
298.15 K, 2300 kPa, x1 = 0.2995	986.02
298.15 K, 2900 kPa, x1 = 0.2995	986.78
298.15 K, 3000 kPa, x1 = 0.6994	1122.99
298.15 K, 3200 kPa, x1 = 0.5013	1050.04
298.15 K, 3900 kPa, x1 = 0.5013	1050.82
298.15 K, 4000 kPa, x1 = 0.2995	987.78
298.15 K, 4000 kPa, x1 = 0.6994	1124.04
298.15 K, 4800 kPa, x1 = 0.5013	1051.57
298.15 K, 4800 kPa, x1 = 0.6994	1124.91
298.15 K, 5000 kPa, x1 = 0.2995	988.82
298.15 K, 5900 kPa, x1 = 0.2995	989.64
298.15 K, 6100 kPa, x1 = 0.5013	1052.93
298.15 K, 6100 kPa, x1 = 0.6994	1126.11
298.15 K, 6900 kPa, x1 = 0.2995	990.62
298.15 K, 7000 kPa, x1 = 0.6994	1126.84
298.15 K, 7100 kPa, x1 = 0.5013	1053.82
298.15 K, 7800 kPa, x1 = 0.2995	991.51
298.15 K, 7800 kPa, x1 = 0.5013	1054.57
298.15 K, 8000 kPa, x1 = 0.6994	1127.94
298.15 K, 8600 kPa, x1 = 0.2995	992.31
298.15 K, 8800 kPa, x1 = 0.6994	1128.76
298.15 K, 9000 kPa, x1 = 0.5013	1055.76
298.15 K, 9800 kPa, x1 = 0.5013	1056.47
298.15 K, 9900 kPa, x1 = 0.2995	993.71
298.15 K, 9900 kPa, x1 = 0.6994	1129.84
298.15 K, 11700 kPa, x1 = 0.2995	995.34
298.15 K, 11900 kPa, x1 = 0.5013	1058.45
298.15 K, 12000 kPa, x1 = 0.6994	1131.77
298.15 K, 13700 kPa, x1 = 0.6994	1133.5
298.15 K, 13800 kPa, x1 = 0.2995	997.35
298.15 K, 13800 kPa, x1 = 0.5013	1060.29
298.15 K, 15600 kPa, x1 = 0.6994	1135.23
298.15 K, 15900 kPa, x1 = 0.2995	999.26
298.15 K, 15900 kPa, x1 = 0.5013	1062.3
298.15 K, 17700 kPa, x1 = 0.6994	1137.32
298.15 K, 17900 kPa, x1 = 0.2995	1001.14
298.15 K, 18000 kPa, x1 = 0.5013	1064.25
298.15 K, 19400 kPa, x1 = 0.2995	1002.51
298.15 K, 19600 kPa, x1 = 0.6994	1139.1
298.15 K, 19900 kPa, x1 = 0.5013	1065.99
308.15 K, 101.33 kPa, x1 = 0.1036	911.53
308.15 K, 101.33 kPa, x1 = 0.2054	941.7
308.15 K, 101.33 kPa, x1 = 0.3019	971.32
308.15 K, 101.33 kPa, x1 = 0.4003	1002.93
308.15 K, 101.33 kPa, x1 = 0.4963	1035.07
308.15 K, 101.33 kPa, x1 = 0.602	1071.98
308.15 K, 101.33 kPa, x1 = 0.682	1101.3
308.15 K, 101.33 kPa, x1 = 0.8002	1147.08
308.15 K, 101.33 kPa, x1 = 0.9001	1187.86
308.15 K, 101.33 kPa, x1 = 1	1231.27
